“Also recorded” adds a separate entry of the source. Peptide text beside a SMILES is read from it.
B1: Cardiotropin: factor tested in HD-DoE for INS induction (protein, UniProt Q16619 1-201, looked up)
Cardiotrophin-1: MSRREGSLEDPQTDSSVSLLPHLEAKIRQTHSLAHLLTKYAEQLLQEYVQLQGDPFGLPSFSPPRLPVAGLSAPAPSHAGLPVHERLRLDAAALAALPPLLDAVCRRQAELNPRAPRLLRRLEDAARQARALGAAVEALLAALGAANRGPRAEPPAATASAASATGVFPAKVLGLRVCGLYREWLSRTEGDLGQLLPGGSA

Assays:
Type in all cases: cell-based, human
INS = assay: HD-DoE screening for optimal de novo beta cell induction (stage 3 cultures, 3 day perturbation), INS induction; settings: for factor contribution, induction of INS: Example 19, four HD-DoE panels, FIG. 20; for effect on INS induction: heat map FIG. 21, dynamic profiling FIGS. 22-25
Description: FIG. 18 HD-DoE screening for optimal de novo beta cell induction. Culture of the iPSC cell line CR01 were differentiated to a DFE state for 3 days. These cultures were then incubated in the presence of stage 2 media for an additional 3 days. These cultures were then incubated for an additional 5 days in the presence of GSI-XX and A8301 followed by a 3 day incubation in the presence of a perturbation matrix composed of the compounds indicated in the different panels. This was performed 3 separate times (once for each of the 3 panels). These HD-DoE experiments were then analyzed using MODDE software for maximal induction of insulin. The predicted results are shown.
FIG. 20 HD-DoE screening for optimal de novo beta cell induction. Cultures of the iPSC cell line CR01 were differentiated to a DFE state for 3 days. These cultures were then incubated in the presence of stage 2 media for an additional 3 days. These cultures were then incubated for an additional 5 days in the presence of GSI-XX and A8301 followed by a 3 day incubation in the presence of a perturbation matrix composed of the compounds indicated in the different panels. This was performed 4 separate times (once for each of the 4 panels). These HD-DoE experiments were then analyzed using MODDE software for the maximal induction of Insulin. The predicted results are shown.
(§1) FIGS. 22-25. Dynamic profiling of endocrine sub-type regulation. One of the HD-DoE experiments shown in Example 19 was analyzed using MODDE software and dynamic profiling of the endocrine products GCG, SST and INS are shown.
To define factors contributing to the activation of INS, a series of HD-DoE perturbations were performed using factors chosen to target different aspects of beta cell biology.
To define factors contributing to the activation of INS, a series HD-DoE perturbations were performed using factors chosen to target different aspects of beta cell biology.

SST (delta cell marker) = assay: HD-DoE stage 3 screening, heat map and dynamic profiling: SST; settings: heat map FIG. 21, dynamic profiling FIGS. 22-25
From the text: (§2) FIG. 19 Heat map showing descending factor contributions for the induction of INS. The three HD-DoE experiments shown in Example 17 were used for modeling the maximal expression of several other genes, including GCG, SST, PDX1, PAX4, MAFA and NKX2.2, which are indicative of endocrine cell types with a focus on pancreatic beta cells as indicated at the top of the heat map. The relative factor contributions for the activation of these different genes were then used to generate a secondary heat map representative of the gene induction logic and then ranked according to the compound's ability to induce INS. Dark blue colors indicate a high inductive capacity, while dark red colors indicative of a highly repressive capacity for activation of the genes are shown.
(§3) FIG. 21 Heat map showing descending factor contributions for the induction of INS. The four HD-DoE experiments shown in Example 19 were used for modeling the maximal expression of several other genes. These genes were GCG, SST, PDX1, PAX4, MAFA and NKX2.2. These genes are all indicative of endocrine cell types with a focus on the beta cell as indicated at the top of the heatmap. The relative factor contribution for the activation of these different genes were then used to generate a secondary heat map representative of these genes induction logic and then ranked order according to the compounds ability to induce INS. Dark blue indicates high inductive capacity, while dark red is indicative of a highly repressive effect for the activation of the genes shown.
as §1

GCG (alpha cell marker) = assay: HD-DoE stage 3 screening, heat map and dynamic profiling: GCG; settings: heat map FIG. 21, dynamic profiling FIGS. 22-25
From the text: as §2, §3, §1

[1] = test system: GCG, SST, PDX1, PAX4, MAFA and NKX2.2; assay: HD-DoE stage 3 screening, heat map and dynamic profiling of endocrine and beta cell genes; settings: for effect on beta cell specific transcription factors / all genes optimized: heat maps FIG. 19 and FIG. 21; for effect on beta cell state / endocrine fate: heat map FIG. 21, dynamic profiling FIGS. 22-25
From the text: as §2, §3, §1
To ascertain which factors could potentially favor the beta cell over other endocrine cell types, optimizers for markers of the other endocrine cell types and beta cell specific markers were compared. The relative factor contribution from the different optimizers were compared.
Optimizers for the main pancreatic endocrine hormones and beta cell-specific transcription factors were generated to compare their contribution factors for this series of HD-DoE. Compounds that could selectively favor the differentiation of the beta cell over that of the alpha and delta cells were identified in this manner.

PDX1 = assay: HD-DoE perturbation matrix on DFE culture, modelling for maximal PDX1 induction; settings: DFE culture, HD-DoE, FIG. 11
From the text: FIG. 11 Modelling for maximal PDX1 induction. Cultures of the iPSC cell line Cr01 was differentiated to a DFE state and then subjected to an HD-DoE perturbation matrix composed of the compounds indicated in the figure. MODDE software was used to predict the optimal condition for maximizing PDX1 activation. Predicted factor additives for this optimization and the relative expression under these conditions for the genes measured are shown.
FIG. 12 Coefficient plots show main effectors for pancreatic progenitor generation from a DFE precursor. Coefficients for the HD-DoE design shown in Example 9 are shown for PDX1 and PTF1A. The co-expression of these two genes is indicative of a pancreatic field.
To determine the best way for inducing a pancreatic fate from a DFE progenitor, a subsequent HD-DoE analysis was performed. Exposing a DFE culture to a perturbation matrix composed of all previously identified effectors shown to have a positive effect on PDX1 activation was used to define optimal conditions for PDX1 induction.

Molecule | factor contribution, induction of INS (INS) | effect on INS induction (INS) | effect on SST induction / delta cell fate (SST (delta cell marker)) | effect on GCG induction / alpha cell fate (GCG (alpha cell marker)) | other results
CN(CCOc1ccc(CC2SC(=O)NC2=O)cc1)c1ccccn1 (stereo not drawn) [rosiglitazone] | 6.0 |  |  |  | 
CC(C)n1nc(C#Cc2ccccc2)c2c(N)ncnc21 [SPP86] | 4.8 | positive effect on INS induction, though with far less contribution |  |  | 
NCCc1c[nH]c2ccccc12 [tryptamine] | 21.2 | strongest INS inducing effects | no effect | no effect | 
CC(C)Cn1c(=O)n(C)c(=O)c2[nH]cnc21 [IBMX] |  |  |  |  | effect on beta cell specific transcription factors / all genes optimized [1]: beneficial for all genes optimized
CC1=C(/C=C/C(C)=C/C=C/C(C)=C/C(=O)O)C(C)(C)CCC1 [retinoic acid] |  |  |  |  | factor contribution, PDX1 activation (PDX1): 19.2
CC1=NS(=O)(=O)c2cc(Cl)ccc2N1 [diazoxide] |  | positively increased INS induction, though not significantly |  |  | 
Nc1nc(Nc2ccc3c(c2)CC[C@@H](N2CCCC2)CC3)nn1-c1cc2c(nn1)-c1ccccc1CCC2 [R248] | 22.9 |  |  |  | effect on beta cell state / endocrine fate [1]: strongest inducers of the beta cell state
NC(=O)CC[C@H](N)C(=O)O [glutamine] | 10.4 |  |  |  | 
NCCc1c[nH]c2ccc(O)cc12 [serotonin] |  |  | inhibited SST induction | strongly activated GCG induction | 
C/C(=C\c1ccc(C(=O)O)cc1)c1ccc2c(c1)C(C)(C)CCC2(C)C [TTNPB] | 12.7 |  | strongly inhibiting; also recorded: inhibitory | strongly inhibiting; also recorded: inhibitory | effect on beta cell state / endocrine fate [1]: strongest inducers of the beta cell state; effect on beta cell specific transcription factors / all genes optimized [1]: strongly activate all beta cell specific transcription factors
COc1cc(O)c2c(c1)/C=C/C[C@H](O)[C@H](O)C(=O)/C=C\C[C@H](C)OC2=O [(5Z)-7-oxozeanol, (5Z)-7-Oxozeaenol] |  |  |  |  | factor contribution, PDX1 activation (PDX1): 8.2
Clc1ccc(C2(c3ccc(-c4cn[nH]c4)cc3)CCNCC2)cc1 [AT7867] |  |  |  |  | factor contribution, PDX1 activation (PDX1): 15.5
Nc1nc(OC(c2ccc(-c3cccc(F)c3)cc2)C(F)(F)F)cc(-c2ccc(C[C@H](N)C(=O)O)cc2)n1 (stereo partly drawn) [LP533401] | 10.7 | contributed to the induction of INS |  |  | 
Clc1cccc(Cl)c1N=C1NCCN1 [clonidine] |  | contributed to the induction of INS |  |  | contribution factor, activation of INS (INS; Example 17, three HD-DoE panels, FIG. 18): 23.4
obestatin | 9.6 | contributed to the induction of INS |  |  | 
Cc1nn(-c2ccccc2)c(C)c1/C=N/N1CCN(Cc2ccccc2)CC1 [SANT1] | 15.0 | stronger for INS induction | increased induction | increased induction | factor contribution, PDX1 activation (PDX1): 5.0; effect on beta cell state / endocrine fate [1]: increased induction of endocrine fates without total specificity towards the beta cell
C[C@H](N)C(=O)N[C@@H](CCC(N)=O)C(=O)O [glutamax] (H-Ala-Gln-OH) |  | stronger for INS induction | increased induction | increased induction | effect on beta cell state / endocrine fate [1]: preferentially favoring the beta cell fate, though to a lesser level; also recorded: positive inducer of endocrine fate; also recorded: increased induction of endocrine fates without total specificity towards the beta cell
CCC(=O)O [propionate] | 5.3 | significantly increased INS levels | inhibited | inhibited | effect on beta cell state / endocrine fate [1]: preferentially favoring the beta cell fate, though to a lesser level
FGF19: FGF pathway agonist |  | contributed to overall INS induction, but to a much smaller degree |  |  | 
B1 |  | positively increased INS induction, though not significantly |  |  | 

Reference: patent US20240067931A1, “METHODS AND COMPOSITIONS FOR SMALL MOLECULE BASED PANCREATIC BETA CELL INDUCTION” (Trailhead Biosystems Inc., priority 2022, published 2024)
